Structures are written as SMILES. Where “and” joins values, the source holds several entries; their conditions need not be identical. Identical values can stand only once.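 96-well plates; 48 h exposure; 5 concentrations. Endpoints by linear interpolation between flanking doses. Not reached: highest tested concentration assigned. GI50 marks 50% less growth. The concentration for full growth arrest is given as TGI.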 Bounds are passed on as bounds.

For this test, the system named is MDA-MB-468 breast. The test can be described thus: NCI tumour cell line growth inhibition, 48 h.
In the case of `Nc1ncnc2c1ncn2C1OC(F)(COS(N)(=O)=O)C(O)C1O` (centres undefined), the GI50 is above 100 µM and the TGI was above 100 µM.

In the case of `CCc1n(Cc2ccc3ccccc3c2)cc[n+]1Cc1ccc2ccccc2c1`, the GI50 was 0.182 µM and the TGI is 0.859 µM.

For `CC(=O)OC1C(C)OC(Oc2c(-c3ccc(O)cc3)oc3cc(O)cc(O)c3c2=O)C(O)C1OC(C)=O` (centres undefined), the GI50 is 17.8 µM and the TGI was 42.8 µM.

Turning to `CCn1cnc(C[C@H](NC(=O)[C@@H](NC(=O)Nc2cc(C(F)(F)F)cc(C(F)(F)F)c2)C(C)(C)C)C(=O)OC)c1`, the GI50 was 5.18 µM and the TGI is above 10 µM.

As to `Nc1ccccc1SC(CC(=O)c1ccccc1)c1c(Cl)cccc1Cl` (centres undefined), the GI50 is 6.3 µM and the TGI amounted to 27.9 µM.

For `COc1cc2c(cc1OCCCN1CCN(CCCOc3cc4c(cc3OC)C(=O)N3C[C@H](F)C[C@H]3C=N4)CC1)N=C[C@@H]1C[C@@H](F)CN1C2=O`, the GI50 is below 0.01 µM and the TGI came out at 0.0397 µM.

In the case of `O=NN(CC(=O)NNc1ccccc1)CC(=O)NNc1ccccc1`, the GI50 was above 78.3 µM and the TGI was above 100 µM.

On to `O=C1/C(=C/c2ccc([N+](=O)[O-])s2)Oc2ccc(Br)cc21`, for which the GI50 is 0.263 µM and the TGI was determined as 0.781 µM.

On to `O=[N+]([O-])c1cc2c(ccc3ccccc32)o1`, for which the GI50 is 0.169 µM and the TGI came to 0.446 µM.

Regarding `Nc1ncnc2occ(-c3ccc(NC(=O)Nc4cccc(C(F)(F)F)c4)cc3)c12`, the GI50 is 3.62 µM and the TGI worked out at 11.8 µM.

For `COc1cc(/C=C/C(=O)c2cccc(-n3cc(-c4ccccc4)[nH]c3=O)c2)ccc1O`, the GI50 is 3.43 µM and the TGI worked out at 22.2 µM.

Consider `Cc1nc2sc(C(=O)Nc3cccc4c3OCCO4)c(N)c2cc1C(C)O` (centres undefined), for which the GI50 is 3.64 µM and the TGI is above 100 µM.

Take `O=C(Nc1ccc(Br)cc1)c1cc(Br)ccc1O`: the GI50 is 0.328 µM and 0.722 µM; the TGI is 1.68 µM and 3.57 µM.

Turning to `O=C(NCCc1nccs1)c1cnc2c(S)cccc2c1`, the GI50 is 4.13 µM and the TGI was 39 µM.

As to `COc1ccc(C(=O)c2no[n+]([O-])c2C(=O)c2ccc(OC)cc2)cc1`, the GI50 was 1.37 µM and the TGI stood at 2.78 µM.

For `COC(=O)c1ccc(C)cc1C1CN=NC12Cc1c(C)cccc1C2=O` (centres undefined), the GI50 is 30.7 µM and the TGI is above 100 µM.

For the molecule `C=CC(=O)N1CCN(c2nc(OC[C@@H]3CCCN3C)nc3c(F)c(-c4nc(N)cc(C)c4C(F)(F)F)c(Cl)cc23)[C@@H](C)C1`, the GI50 was 1.3 µM and the TGI turned out to be 2.7 µM.

As to `O=C1C=CC(=O)N1c1ccc2ccccc2c1`, the GI50 was 3.56 µM and the TGI was determined as 14.4 µM.

`NC(=O)c1c(NC(=O)c2ccc(C(F)(F)F)cc2Cl)sc2c1CCC(=O)C2`: the GI50 was 0.277 µM and the TGI is 1.04 µM.

Consider `O=C(/C=C/c1cccc(Cl)c1)c1ccccc1`, for which the GI50 was 13.1 µM and the TGI was 26.9 µM.

On to `O=C(Nc1cccc2[nH]c(C(F)(F)F)nc12)c1ccc(Br)cc1F`, for which the GI50 was 2.4 µM and the TGI was found to be 7.05 µM.

Turning to `CC1=C(C(=O)Nc2cc(F)c(F)cc2F)C(c2ccc(N(C)C)cc2)C(C(=O)Nc2cc(F)c(F)cc2F)=C(C)N1`, the GI50 was 30.1 µM and the TGI is above 100 µM.

Consider `Cc1nc2ccccc2c(/C=C/c2ccc(C(F)(F)F)cc2)c1C(=O)/C=C/c1ccccc1`, for which the GI50 is 1.78 µM and the TGI is 3.7 µM.

Take `Cc1cc(N)c2cc(NC(=O)/C=C\c3ccccc3Cl)ccc2n1`: the GI50 was 0.398 µM and the TGI is 1.48 µM.

Take `C=CCn1c(C)nc2cc(Nc3nc(N4CCCC4)nc4nc[nH]c34)ccc21`: the GI50 was above 100 µM and the TGI is above 100 µM.

Regarding `O=C1c2c[n+](Cc3ccccc3)ccc2-c2nc3ccccc3c3ccnc1c23`, the GI50 was 0.389 µM and the TGI was 1.02 µM.

Regarding `Cc1nc2ccccc2c(/C=C/c2ccc(F)cc2)c1C(=O)/C=C/c1ccccc1`, the GI50 is 1.86 µM and the TGI stood at 4.26 µM.

With `COc1cccc(/C=C2\COc3ccc(O)c(O)c3C2=O)c1OC`, the GI50 was 1.67 µM and the TGI is 3.91 µM.

Consider `CC(C)(C)c1ccc(OCCCCCCCN2CCNCC2)cc1`, for which the GI50 is 1.84 µM and the TGI was determined as 3.58 µM.

Regarding `CCCCCCCCCCCCNCCCc1ccccc1`, the GI50 is 1.54 µM and the TGI turned out to be 3.17 µM.

As for `COc1ccc(/C(=N/O)c2cc(F)c(F)c(OC)c2F)cc1O`, the GI50 is 0.552 µM and the TGI was above 100 µM.

With `COc1cccc(C2=C(c3cn(C)c4c(C)cccc34)C(=O)NC2=O)c1`, the GI50 is 20.6 µM and the TGI was above 25 µM.

Source of the values: PubChem BioAssay (NCI).
